Laboratory results reported in patent US20220362348A1, “LACTOFERRIN, DERIVED PEPTIDE THEREOF AND METHOD THEREOF FOR INHIBITING AND/OR ALLEVIATING LIPID SYNTHESIS” (RENORIGIN INNOVATION INSTITUTE CO., LTD., priority 2021, published 2022).

Tested on: Human sebocytes
Assay: Neutral fat detection (Nile red staining, fluorescence intensity) in linoleic acid-induced sebocytes
Assay type: cell-based
Conditions: for concentration dependence of inhibition of LA-induced lipid content: FIGS. 1-4, lactoferrin 100-400 μg/mL, peptides 25-100 μg/mL
Procedure: Human sebocytes (Cat. No. 36079-01, Celprogen, Torrance, Calif., USA) were cultured in Dulbecco's Modified Eagle Medium (DMEM): Nutrient Mixture F-12 (DMEM/F12) purchased from Thermo Fisher Scientific Limited (Barrington, Ill., USA), 10% fetal bovine serum (FBS) purchased from Gibco, Grand Island, N.Y., USA and penicillin/streptomycin (100 IU/50 […]), incubated at 37° C. in the 5% CO2 atmosphere.
Human sebocytes were implanted in 24- or 96-well plates. After 24 hours of culture, the cells were divided into a negative control group, a positive control group and an experimental group. […] The treated human sebocytes were cultured for two days. Human sebocytes were fixed with 4% formaldehyde at room temperature. After 60 minutes of fixation, the cells were washed with PBS and stained with Nile Red solution (1 μg/ml in PBS) at 37° C. for 15 minutes. Next, the cells were washed and observed under a fluorescent microscope. Fluorescence intensity is measured with fluorometer Spectra Max i3.

[1] = FIG. 5, 0.1 mM LA + 50 μg/mL peptide
[2] = FIG. 5, 0.1 mM LA + 50 μg/mL peptide, negative control about 1.0, positive control about 2.5
[3] = FIGS. 2-4, 0.1 mM LA + 25 to 100 μg/mL peptide
[4] = FIGS. 2-4 D, 0.1 mM LA + 25 μg/mL peptide, two days, negative control about 1.0
[5] = FIGS. 2-4 D, 0.1 mM LA + 50 μg/mL peptide, two days, negative control about 1.0
[6] = FIGS. 2-4 D, 0.1 mM LA + 100 μg/mL peptide, two days, negative control about 1.0

lactoferrin peptide 85-91: Derived peptide of lactoferrin comprising the amino acid sequence of SEQ ID NO: 03 (KESPQTH; Lactoferrin derived peptide)
lipid content reduced compared with positive control group (LA) [1]: 40% | fluorescence intensity (lipid content, Nile red) [2]: about 1.5 | concentration dependence of inhibition of LA-induced lipid content: dose-dependent manner | lipid content reduced compared with positive control group (LA) [3]: 25% | fluorescence intensity (lipid content, Nile red) [4]: about 1.5 | fluorescence intensity (lipid content, Nile red) [5]: about 1.5 | fluorescence intensity (lipid content, Nile red) [6]: about 1.5

lactoferrin peptide 69-75: Derived peptide of lactoferrin comprising the amino acid sequence of SEQ ID NO: 02 (RDPYKLR; Lactoferrin derived peptide)
lipid content reduced compared with positive control group (LA) [1]: 40% | fluorescence intensity (lipid content, Nile red) [2]: about 1.5 | concentration dependence of inhibition of LA-induced lipid content: dose-dependent manner | lipid content reduced compared with positive control group (LA) [3]: 25% | fluorescence intensity (lipid content, Nile red) [4]: about 1.5 | fluorescence intensity (lipid content, Nile red) [5]: about 1.5 | fluorescence intensity (lipid content, Nile red) [6]: about 1.5

lactoferrin peptide 695-701: Derived peptide of lactoferrin comprising the amino acid sequence of SEQ ID NO: 04 (KKCSTSP; Lactoferrin derived peptide)
lipid content reduced compared with positive control group (LA) [1]: 40% | fluorescence intensity (lipid content, Nile red) [2]: about 1.5 | concentration dependence of inhibition of LA-induced lipid content: dose-dependent manner | lipid content reduced compared with positive control group (LA) [3]: 25% | fluorescence intensity (lipid content, Nile red) [4]: about 1.5 | fluorescence intensity (lipid content, Nile red) [5]: about 1.5 | fluorescence intensity (lipid content, Nile red) [6]: about 1.5

CCCCC/C=C\C/C=C\CCCCCCCC(=O)O [LA, linoleic acid, reference compound]
lipid content induced by LA relative to negative control group (0.1 mM linoleic acid (LA) alone): more than 2 times
